Laboratory results from US8637090B2, “Gallium formulation for the treatment and prevention of infectious diseases” (Aridis Pharmaceuticals, priority 2009, dated 2014).
Like-named read-outs stand apart in the source and are kept apart here.

Legend:
[1] = Crystallinity of spray dried gallium powders by powder X-ray diffraction; format: physicochemical; conditions: qualitative analysis of crystallinity, XRD 5° to 75° 2θ
Method: Crystallinity of the spray dried gallium powders was determined using a Philips X-Pert Pro MPD powder diffractometer. The radiation used was generated by a Cu Kα source with a wavelength of 1.5406 Å at 45 kV and 40 mA. Samples were scanned from 5° to 75° 2θ at a scanning rate of 1.2° 2θ/min using a slit width of 0.25°. Particular emphasis was placed on determining the effects of the various excipients on the crystallinity of the spray dried particles. The composition of the gallium formulations examined, as well as the residual moisture content and a qualitative analysis of crystallinity are shown in Table 8. X-ray diffractometer (XRD) scans reveal that spray dried gallium nitrate is amorphous as are mannitol and L-leucine (FIG. 5). Sodium citrate, however, is crystalline and the crystallinity is maintained even in the presence of other excipients.

B. anthracis 7702 cells = format: cell-based; conditions: 1:1 gallium-to-citrate, approximately 20 hours of growth
[2] = system: Pseudomonas aeruginosa (Pa); conditions: against Pa; cited from earlier work
Pa = conditions: mouse; nasal instillation of a bolus of liquid; also under in vivo Pa biofilm colonization conditions; cited from earlier work

SMILES: O=[N+]([O-])[O-].O=[N+]([O-])[O-].O=[N+]([O-])[O-].[Ga+3] [Gallium, gallium nitrate]
- Crystalline/Amorphous [1]: amorphous
- OD600 nm (B. anthracis 7702 cells; Gallium concentration 6.8 μM): 0.000
- OD600 nm (B. anthracis 7702 cells; Gallium concentration 23.3 μM): 0.000
- OD600 nm (B. anthracis 7702 cells; Gallium concentration 27.1 μM): 0.001
- OD600 nm (B. anthracis 7702 cells; Gallium concentration 88.9 μM): 0.003
- OD600 nm (B. anthracis 7702 cells; Gallium concentration 614.8 μM): 0.000
- OD600 nm (B. anthracis 7702 cells; Gallium concentration 1709.9 μM): 0.000
- bactericidal concentration (MBC) [2]: approximately 0.7 μg/mL
- minimum inhibitory concentration (MIC90) [2]: approximately 0.7 μg/mL
- protection after lethal i.t. Pa inoculation (Pa): good protection
